Assay results published in the NIST ThermoML archive (doi:10.1016/j.jct.2017.07.013).

Experiment: xn = mol fraction of the nth substance listed
Conditions: 101.3 kPa, Liquid; for speed of sound: Frequency=3 MHz, Single path-length method; for mass density: Vibrating tube method

CCCC[n+]1ccn(C)c1.O=S(=O)([N-]S(=O)(=O)C(F)(F)F)C(F)(F)F + COC(=O)OC
Conditions	mass density, 303.15 K [kg/m3]	mass density, 308.15 K [kg/m3]	mass density, 313.15 K [kg/m3]	mass density, 318.15 K [kg/m3]	mass density, 323.15 K [kg/m3]	speed of sound, 303.15 K [m/s]	speed of sound, 308.15 K [m/s]	speed of sound, 313.15 K [m/s]	speed of sound, 318.15 K [m/s]	speed of sound, 323.15 K [m/s]
x1 = 0.0512	1120.1	1113.8	1107.5	1101.2	1094.9	1187	1167.2	1147.5	1127.6	1108.3
x1 = 0.101	1168.9	1163	1157	1151	1145	1196.1	1177.7	1159.4	1141	1123
x1 = 0.1495	1207.1	1201.3	1195.5	1189.8	1184	1203.7	1186.5	1169.4	1152.4	1135.6
x1 = 0.1945	1236.1	1230.5	1224.9	1219.3	1213.7	1209.2	1192.9	1176.8	1160.8	1144.9
x1 = 0.2994	1288.3	1282.9	1277.6	1272.2	1266.9	1215.4	1200.7	1186.2	1171.7	1157.4
x1 = 0.3999	1324.3	1319.1	1313.9	1308.8	1303.6	1217.4	1203.8	1190.3	1176.9	1163.6
x1 = 0.4976	1351.4	1346.3	1341.2	1336.2	1331.1	1217.7	1204.9	1192.1	1179.5	1166.9
x1 = 0.5842	1370.7	1365.6	1360.7	1355.7	1350.7	1217.4	1205	1192.8	1180.6	1168.6
x1 = 0.6886	1389.7	1384.8	1379.8	1374.9	1370.1	1217.4	1205.5	1193.7	1182.1	1170.5
x1 = 0.7475	1399	1394.1	1389.2	1384.3	1379.5	1217.2	1205.6	1194	1182.6	1171.3
x1 = 0.8014	1406.6	1401.8	1396.9	1392.1	1387.3	1217	1205.6	1194.2	1183	1171.8
x1 = 0.889	1417.4	1412.6	1407.8	1403	1398.2	1216.8	1205.6	1194.5	1183.6	1172.7
x1 = 0.9526	1424.2	1419.4	1414.6	1409.9	1405.1	1216.8	1205.7	1194.8	1184	1173.3
x1 = 1	1428.9	1424.1	1419.4	1414.6	1409.9	1216.8	1205.8	1195	1184.2	1173.6
